According to patent US20220193310A1, “DUAL AGENT NANOPARTICLE COMPOSITION FOR COATING MEDICAL DEVICES” (THE CLEVELAND CLINIC FOUNDATION, priority 2020, published 2022):
Values after ≈ are worked out from the molar mass of the structure shown.

Tested on: primary human vascular smooth muscle cells
Test: Inhibition of cell proliferation, CyQUANT NF Cell Proliferation Assay
Type: cell-based
Conditions: drug in solution, FIG. 11A, read-out: IC50, dose required to achieve 50% inhibition of cell proliferation
Procedure: Cell viability was determined using CyQUANT™ NF Cell Proliferation Assay kit (Cat #C35006, ThermoFisher Scientific). Fluorescent readings were taken by a microplate reader (Cytation 5, BioTek Instruments Inc., Vermont). […] A) Dose-response effect following treatment of cells with Paclitaxel (PTX) or Sirolimus (SRL) in solution. From the dose-response study, IC50 for each drug was determined. IC50 is the dose that is required to achieve 50% inhibition of cell proliferation with respect to untreated cell.
Determination of Synergistic Effect of Combination Paclitaxel and Sirolimus: The synergistic effect of the combination treatment was determined in vitro using human vascular smooth muscle cells. The IC50 i.e., the drug amount required to inhibit cell proliferation by 50% with respect to the untreated cells was determined using cell viability assay. Drug combination index (CI) was used to determine if the combination treatment is synergistic (CI=<1), additive (CI=1) or antagonistic (CI>1).
Method: Primary human vascular smooth muscle cells (VSMCs) were incubated with different doses of the encapsulated drug(s) for six days. Cell viability was determined using CyQUANT™ NF Cell Proliferation Assay kit (Cat #C35006, ThermoFisher Scientific). Fluorescent readings were taken by a microplate reader (Cytation 5, BioTek Instruments Inc., Vermont).

| SMILES | IC50 |
| --- | --- |
| CC(=O)O[C@H]1C(=O)[C@@]2(C)[C@H]([C@H](OC(=O)c3ccccc3)[C@]3(O)C[C@H](OC(=O)[C@H](O)[C@@H](NC(=O)c4ccccc4)c4ccccc4)C(C)=C1C3(C)C)[C@]1(OC(C)=O)CO[C@@H]1C[C@@H]2O [PTX, Paclitaxel] | 1.16 µg/mL (≈ 1.35 µM) |
| CO[C@H]1C[C@@H]2CC[C@@H](C)[C@@](O)(O2)C(=O)C(=O)N2CCCC[C@H]2C(=O)O[C@H]([C@H](C)C[C@@H]2CC[C@@H](O)[C@H](OC)C2)CC(=O)[C@H](C)/C=C(\C)[C@@H](O)[C@@H](OC)C(=O)[C@H](C)C[C@H](C)/C=C/C=C/C=C/1C [SRL, Sirolimus] | 29.1 µg/mL (≈ 31.8 µM) |
